From US12171764B2, “Treatment of a disease of the gastrointestinal tract with a JAK or other kinase inhibitor” (BIORA THERAPEUTICS, INC., priority 2018, dated 2024)
Read-outs that look alike come from different tables or passages of the source.

Columns and labels:
[1] = Example 10: tacrolimus in GI tissue, luminal content and rectal content, oral vs intra-cecal ingestible device delivery; type: in vivo, Yorkshire-Cross farm swine; conditions: FIG. 92
Description: (§1) The primary objective of this study was to compare the tissue, plasma, rectal sample, and GI content pharmacokinetics of tacrolimus through oral versus intra-cecal ingestible device delivery in normal Yorkshire-Cross farm swine.
Animals in Group 1 received an ingestible device containing 0.8 mL of vehicle solution (80% alcohol, 20% HCO-60). Animals in Group 2 received orally […] liquid formulation of tacrolimus at 4 mg/0.8 mL per animal (Prograf: 5 mg/mL). Animals in Group 3 received intra-cecally an ingestible device containing tacrolimus at 1 mg in 0.8 mL per ingestible device. […]
Approximately 200˜400 mg of rectal content were collected, if available, with a fecal swab (Copan Diagnostics Nylon Flocked Dry Swabs, 502CS01). The fecal swab was pre-weighed and weighed after collection in the collection tube (Sterile Tube and Cap No Media, PFPM913S), and the sample weight was recorded. […]
For tissue necropsy, small intestine fluid and cecal fluid were collected separately from all the animals into two separate square plastic bottles, and stored at −20° C. The length and diameter of the cecum and the colon was measured from one animal in each group and recorded for reference. […] All samples were weighed, and the tissue sample weights were recorded. […] Around 3 grams of the total punched sample were collected into a pre-weighed 15-mL conical tube, and the tissue weight was recorded. […]

[2] = Example 13: tacrolimus blood pharmacokinetics, oral vs intra-cecal administration; type: in vivo, Yorkshire-Cross farm swine; conditions: swine
Text: (§2) No further randomization procedure was employed.

[3] = Example 10: tacrolimus blood/plasma pharmacokinetics, oral vs intra-cecal ingestible device delivery; type: in vivo, Yorkshire-Cross farm swine
Description: as §1, §2
Animals in Group 1 received an ingestible device containing 0.8 mL of vehicle solution (80% alcohol, 20% HCO-60). Animals in Group 2 received orally […] liquid formulation of tacrolimus at 4 mg/0.8 mL per animal (Prograf: 5 mg/mL). Animals in Group 3 received intra-cecally an ingestible device containing tacrolimus at 1 mg in 0.8 mL per ingestible device. Animals in Group 4 received intra-cecally an ingestible device containing tacrolimus at 2 mg in 0.8 mL per ingestible device. Animals in Group 5 received intra-cecally an ingestible device containing tacrolimus at 4 mg in 0.8 mL per ingestible device. To control for potential confounding effects of the surgery, all groups fast on Day −11 at least 24 hr before being subjected to anesthesia followed by surgical placements of a cecal port by a veterinary surgeon at Day −10. All animals were fasted for at least 12 hr prior to dosing on Day 1. Animals were dosed via either intra-cecal dosing (IC) or oral dosing (PO) at Day 1 (between 6-8 p.m.). All animals resumed feeding at approximately 4 hours after dose (11-12 p.m. after dosing).
Approximately 200˜400 mg of rectal content were collected, if available, with a fecal swab (Copan Diagnostics Nylon Flocked Dry Swabs, 502CS01). The fecal swab was pre-weighed and weighed after collection in the collection tube (Sterile Tube and Cap No Media, PFPM913S), and the sample weight was recorded. The fecal swab was broken via the breakpoint, and was stored in the collection tube, and immediately frozen at −70° C. […] Immediately following euthanasia, tissue was collected.
[…] Plasma, rectal content sample, tissue collection, GI content collection and related procedures/storage/shipments was the same as those employed in Group 1.
Group 3 animals were administered a single intra-cecal ingestible device containing tacrolimus at 1-mg/0.8 mL (0.02 mg/kg) (in the vehicle solution) on Day 1 by a veterinary surgeon. […] All samples were analyzed for tacrolimus.
Group 4 animals were administered a single intra-cecal ingestible device of tacrolimus at 2 mg/0.8 mL (0.04 mg/kg) (in sterile vehicle solution) on Day 1 by a veterinary surgeon. […] All samples were analyzed for tacrolimus.
Group 5 animals are administered a single intra-cecal ingestible device containing tacrolimus at 4 mg/0.8 mL (0.08 mg/kg) (in the vehicle solution) on Day 1 by a veterinary surgeon. […] All samples were analyzed for tacrolimus. […]

[4] = animals treated IC (Groups 5-6); FIG. 110
Description: Briefly, samples were analyzed by LC-MS/MS against matrix-matched standard curves.

[5] = test system: IL-6, GM-CSF, IL-15, IL-2, IL-12, IL-13, TNF-α, and INF-γ; test: Tofacitinib pharmacodynamics: JAK/STAT pathway cytokines in plasma and colon tissue by ELISA in DSS-induced colitis mice; type: in vivo, male C57BL/6 mice
[6] = C57BL/6, mouse, in vivo, po, 15 mg/kg
[7] = C57BL/6, mouse, in vivo, 10 mg/kg

C=CC[C@@H]1/C=C(\C)C[C@H](C)C[C@H](OC)[C@H]2O[C@@](O)(C(=O)C(=O)N3CCCC[C@H]3C(=O)O[C@H](/C(C)=C/[C@@H]3CC[C@@H](O)[C@H](OC)C3)[C@H](C)[C@@H](O)CC1=O)[C@H](C)C[C@@H]2OC [tacrolimus]
rectal content concentration at 12 hours post-treatment ([1]; IC capsule groups): higher rectal content concentration | rectal content concentration at 12 hours post-treatment ([1]; PO group): no detectable level | Trough (12 hr) ([2]; IC 0.02 mg/kg (Group 3)): 0.746 ng/mL | Cmax ([2]; IC 0.04 mg/kg): 9.197 ± 3.30 ng/mL | Trough (12 hr) ([2]; IC 0.04 mg/kg (Group 4)): 1.96 ng/mL | Trough (12 hr) ([2]; IC 0.09 mg/kg (Group 5)): 4.35 ng/mL | Cmax ([2]; PO 0.09 mg/kg): 3.53 ± 3.84 ng/mL | Trough (12 hr) ([2]; PO 0.09 mg/kg (Group 2), 0.09 mg/kg): 0.568 ng/mL | Tmax ([3]; Route IC, Dose 0.02 (mg · kg)): 1 | Cmax ([3]; Route IC, Dose 0.04 (mg · kg)): 9.197 ± 3.30 ng/mL | AUC 0-12 hr ([3]; Route PO, Dose 0.09 (mg · kg)): 16.83 ± 3.641 ng·h/mL | Tmax ([3]; Route PO, Dose 0.09 (mg · kg)): 1

C[C@@H]1CCN(C(=O)CC#N)C[C@@H]1N(C)c1ncnc2[nH]ccc12.O=C(O)CC(O)(CC(=O)O)C(=O)O [tofacitinib citrate]
blood exposure [4]: limited blood exposure | IL-6 expression in plasma ([5]; PO or IC administration, 1 h and 3 h post-treatment (data not shown)): inhibition of IL-6 expression was observed | IL-6 expression in colon tissue ([5]; all IC treated groups and the high dose PO group (45 mg/kg), FIG. 112B): inhibition of IL-6 expression was sustained through 24 h post-dose | IL-6 expression in colon tissue ([5]; low dose PO group (15 mg/kg) by 12 h post-dose): Recovery from IL-6 inhibition was observed

C[C@@H]1CCN(C(=O)CC#N)C[C@@H]1N(C)c1ncnc2[nH]ccc12 [tofacitinib, 3-[(3R,4R)-4-methyl-3-[methyl(7H-pyrrolo[2,3-d]pyrimidin-4-yl)amino]piperidin-1-yl]-3-oxopropanenitrile]
T1/2 [6]: 2.53 h | GM-CSF levels in plasma or colon tissue ([5]; IC vs PO treatment groups (data not shown)): nor was there a significant difference in GM-CSF levels | T1/2 [7]: 2.16 h
